Measurements published in patent US20020052317A1, “Anti-viral and anti-tumor chemotherapy by administration of erythropoeitin” (priority 2000, published 2002).

Tests used:
[1] = test system: anemic HCV infected patients receiving combination RBV/IFN alfa-2b; assay: Open-label, randomized, parallel-group study of PROCRIT once weekly versus standard of care in hepatitis C patients on ribavirin/interferon alfa-2b; format: in vivo, human
[2] = test system: patients co-infected with HIV and HCV; conditions: cited from earlier work
[3] = in vivo, 5 mg/kg; cited from earlier work
TNFβ (lymphotoxin α) = biological target: T1, TNFβ (lymphotoxin α) (Homo sapiens, UniProt P01374); conditions: cited from earlier work
T1 sequence (P01374 35-205): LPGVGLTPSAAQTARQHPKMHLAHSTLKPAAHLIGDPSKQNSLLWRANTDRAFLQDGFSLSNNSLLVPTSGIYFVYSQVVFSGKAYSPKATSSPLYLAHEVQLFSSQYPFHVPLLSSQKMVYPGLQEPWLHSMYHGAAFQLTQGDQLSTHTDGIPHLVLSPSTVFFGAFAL

[4] = test system: subjects treated with REBETRON for chronic hepatitis C; conditions: either ribavirin, interferon, or both agents; cited from earlier work
[5] = last available time point vs baseline, PROCRIT 40,000 Units qw s.c., N=22

Epoetin alfa [PROCRIT]
hemoglobin levels (in words) ([1]; anemic patients on Ribavirin/INF-alpha, FIG. 1): increase their hemoglobin levels to near normal levels | Hb Range ([1]; baseline, before PROCRIT, N=25): 9.1 to 12.0 g/dL | Mean Hb ([1]; baseline, before PROCRIT, N=25): 11 g/dL | Change Hb Range [1, 5]: -1.4 to 6.2 g/dL | Mean change Hb [1, 5]: 2.4 g/dL | Hb Range ([1]; last available time point, PROCRIT 40,000 Units qw s.c., N=22): 7.7 to 16.8 g/dL | Mean Hb ([1]; last available time point, analysis after 16 weeks, PROCRIT 40,000 Units qw s.c., N=22): 13.5 g/dL | patient well being ([1]; reported even before hemoglobin levels improved): demonstrated better well being | ability to maintain Ribavirin dosing ([1]; throughout the study period, FIG. 2): increased ability to maintain Ribavirin dosing | hemoglobin (Hb) value at initiation of r-HuEPO ([2]; before r-HuEPO 40,000 U once weekly): 10 g/dL | hemoglobin (Hb) value after r-HuEPO treatment ([2]; r-HuEPO 40,000 U once weekly, after a median of four weeks): 12.7 g/dL

Infliximab: monoclonal antibody that blocks the biological activity of circulating TNFα
median Cmax [3]: 118 µg/mL | median Vd (volume of distribution at steady state) [3]: 3.0 L | terminal half-life [3]: 228 h | neutralization of TNFβ (lymphotoxin α) (TNFβ (lymphotoxin α)): does not neutralize

NC(=O)c1ncn([C@@H]2O[C@H](CO)[C@@H](O)[C@H]2O)n1 [REBETOL, 1β-D-ribofuranosyl 1H-1,2,4-Triazole-3-carboxamide]
patients requiring a dose modification [4]: about 26%
